From the supplement of paper PMC10307832

Assays:
Assay in all cases: relative viability (nuclei count vs DMSO), 5 days (fraction); higher = more cells survive
201T = system: 201T
Summary of the method: (§1)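 Relative viability was taken as the ratio of nuclei in treated wells to nuclei in vehicle wells. Lung cancer cell lines in 1536-well plates received compounds by pin tool one day after seeding, either one drug alone or a fixed anchor-drug dose plus five library-drug doses (not always all listed) in √10 steps. Nuclei were counted on 4× images after 5 days of treatment, and values are medians of duplicate plates.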

BEN = system: BEN
Summary of the method: as §1

EMC-BAC-2 = system: EMC-BAC-2
Summary of the method: as §1

HARA = system: HARA
Summary of the method: as §1

HCC-44 = system: HCC-44
Summary of the method: as §1

LCLC-103H = system: LCLC-103H
Summary of the method: as §1

LOU-NH91 = system: LOU-NH91
Summary of the method: as §1

NCI-H1395 = system: NCI-H1395
Summary of the method: as §1

NCI-H1993 = system: NCI-H1993
Summary of the method: as §1

NCI-H2023 = system: NCI-H2023
Summary of the method: as §1

NCI-H2087 = system: NCI-H2087
Summary of the method: as §1

NCI-H2126 = system: NCI-H2126
Summary of the method: as §1

NCI-H2347 = system: NCI-H2347
Summary of the method: as §1

NCI-H23 = system: NCI-H23
Summary of the method: as §1

NCI-H3122 = system: NCI-H3122
Summary of the method: as §1

NCI-H441 = system: NCI-H441
Summary of the method: as §1

NCI-H522 = system: NCI-H522
Summary of the method: as §1

NCI-H596 = system: NCI-H596
Summary of the method: as §1

NCI-H647 = system: NCI-H647
Summary of the method: as §1

NCI-H650 = system: NCI-H650
Summary of the method: as §1

NCI-H727 = system: NCI-H727
Summary of the method: as §1

NCI-H838 = system: NCI-H838
Summary of the method: as §1

`CC(=O)O[C@@]12CO[C@@H]1C[C@H](O)[C@@]1(C)C(=O)[C@H](O)C3=C(C)[C@@H](OC(=O)[C@H](O)[C@@H](NC(=O)OC(C)(C)C)c4ccccc4)C[C@@](O)([C@@H](OC(=O)c4ccccc4)[C@H]21)C3(C)C` [Docetaxel] + CC(=O)Nc1cccc(-n2c(=O)n(C3CC3)c(=O)c3c(Nc4ccc(I)cc4F)n(C)c(=O)c(C)c32)c1 [Trametinib] (partner 0.02 µM) was tested, and the relative viability (201T; first compound 0.0002 µM) was 0.7, the relative viability (201T; first compound 0.000632 µM) was 0.713 and the relative viability (201T; first compound 0.002 µM) was 0.644. For the same molecule, the relative viability (201T; first compound 0.006325 µM) was 0.498, the relative viability (201T; first compound 0.02 µM) was 0.366 and the relative viability (BEN; first compound 0.0002 µM) was 1.08. For the same molecule, the relative viability (BEN; first compound 0.000632 µM) was 1.04, the relative viability (BEN; first compound 0.002 µM) was 0.763 and the relative viability (BEN; first compound 0.006325 µM) was 0.419. The relative viability (BEN; first compound 0.02 µM) was 0.322, the relative viability (EMC-BAC-2; first compound 0.0002 µM) was 0.874 and the relative viability (EMC-BAC-2; first compound 0.000632 µM) was 0.76. It also gave a relative viability (EMC-BAC-2; first compound 0.002 µM) of 0.554, a relative viability (EMC-BAC-2; first compound 0.006325 µM) of 0.476 and a relative viability (EMC-BAC-2; first compound 0.02 µM) of 0.385. For the same molecule, the relative viability (HARA; first compound 0.0002 µM) was 0.456, the relative viability (HARA; first compound 0.000632 µM) was 0.155 and the relative viability (HARA; first compound 0.002 µM) was 0.235. For the same molecule, the relative viability (HARA; first compound 0.006325 µM) was 0.16, the relative viability (HARA; first compound 0.02 µM) was 0.104 and the relative viability (HCC-44; first compound 0.0002 µM) was 1.04. It also gave a relative viability (HCC-44; first compound 0.000632 µM) of 1, a relative viability (HCC-44; first compound 0.002 µM) of 1.07 and a relative viability (HCC-44; first compound 0.006325 µM) of 0.577. For the same molecule, the relative viability (HCC-44; first compound 0.02 µM) was 0.472, the relative viability (LCLC-103H; first compound 0.0002 µM) was 0.675 and the relative viability (LCLC-103H; first compound 0.000632 µM) was 0.697. It also gave a relative viability (LCLC-103H; first compound 0.002 µM) of 0.727, a relative viability (LCLC-103H; first compound 0.006325 µM) of 0.782 and a relative viability (LCLC-103H; first compound 0.02 µM) of 0.592. It also gave a relative viability (LOU-NH91; first compound 0.0002 µM) of 0.766, a relative viability (LOU-NH91; first compound 0.000632 µM) of 0.783 and a relative viability (LOU-NH91; first compound 0.002 µM) of 0.607. The relative viability (LOU-NH91; first compound 0.006325 µM) was 0.449, the relative viability (LOU-NH91; first compound 0.02 µM) was 0.354 and the relative viability (NCI-H1395; first compound 0.0002 µM) was 1.04. The relative viability (NCI-H1395; first compound 0.000632 µM) was 1.06, the relative viability (NCI-H1395; first compound 0.002 µM) was 0.907 and the relative viability (NCI-H1395; first compound 0.006325 µM) was 0.467. It also gave a relative viability (NCI-H1395; first compound 0.02 µM) of 0.297, a relative viability (NCI-H1993; first compound 0.0002 µM) of 0.504 and a relative viability (NCI-H1993; first compound 0.000632 µM) of 0.578. It also gave a relative viability (NCI-H1993; first compound 0.002 µM) of 0.546, a relative viability (NCI-H1993; first compound 0.006325 µM) of 0.481 and a relative viability (NCI-H1993; first compound 0.02 µM) of 0.3. It also gave a relative viability (NCI-H2023; first compound 0.0002 µM) of 0.498, a relative viability (NCI-H2023; first compound 0.000632 µM) of 0.521 and a relative viability (NCI-H2023; first compound 0.002 µM) of 0.141. For the same molecule, the relative viability (NCI-H2023; first compound 0.006325 µM) was 0.127, the relative viability (NCI-H2023; first compound 0.02 µM) was 0.0628 and the relative viability (NCI-H2087; first compound 0.0002 µM) was 0.159. The relative viability (NCI-H2087; first compound 0.000632 µM) was 0.208, the relative viability (NCI-H2087; first compound 0.002 µM) was 0.181 and the relative viability (NCI-H2087; first compound 0.006325 µM) was 0.118. It also gave a relative viability (NCI-H2087; first compound 0.02 µM) of 0.0893, a relative viability (NCI-H2126; first compound 0.0002 µM) of 0.543 and a relative viability (NCI-H2126; first compound 0.000632 µM) of 0.471. The relative viability (NCI-H2126; first compound 0.002 µM) was 0.403, the relative viability (NCI-H2126; first compound 0.006325 µM) was 0.31 and the relative viability (NCI-H2347; first compound 0.0002 µM) was 0.243. It also gave a relative viability (NCI-H2347; first compound 0.000632 µM) of 0.349, a relative viability (NCI-H2347; first compound 0.002 µM) of 0.262 and a relative viability (NCI-H2347; first compound 0.006325 µM) of 0.271. For the same molecule, the relative viability (NCI-H2347; first compound 0.02 µM) was 0.229, the relative viability (NCI-H23; first compound 0.0002 µM) was 0.377 and the relative viability (NCI-H23; first compound 0.000632 µM) was 0.294. It also gave a relative viability (NCI-H23; first compound 0.002 µM) of 0.278, a relative viability (NCI-H23; first compound 0.006325 µM) of 0.195 and a relative viability (NCI-H23; first compound 0.02 µM) of 0.132. For the same molecule, the relative viability (NCI-H3122; first compound 0.0002 µM) was 0.219, the relative viability (NCI-H3122; first compound 0.000632 µM) was 0.215 and the relative viability (NCI-H3122; first compound 0.002 µM) was 0.194. For the same molecule, the relative viability (NCI-H3122; first compound 0.006325 µM) was 0.194, the relative viability (NCI-H3122; first compound 0.02 µM) was 0.128 and the relative viability (NCI-H441; first compound 0.0002 µM) was 0.389. For the same molecule, the relative viability (NCI-H441; first compound 0.000632 µM) was 0.255, the relative viability (NCI-H441; first compound 0.002 µM) was 0.202 and the relative viability (NCI-H441; first compound 0.006325 µM) was 0.187. It also gave a relative viability (NCI-H441; first compound 0.02 µM) of 0.144, a relative viability (NCI-H522; first compound 0.0002 µM) of 0.79 and a relative viability (NCI-H522; first compound 0.000632 µM) of 0.723. For the same molecule, the relative viability (NCI-H522; first compound 0.002 µM) was 0.676, the relative viability (NCI-H522; first compound 0.006325 µM) was 0.42 and the relative viability (NCI-H522; first compound 0.02 µM) was 0.389. It also gave a relative viability (NCI-H596; first compound 0.0002 µM) of 0.807, a relative viability (NCI-H596; first compound 0.000632 µM) of 0.997 and a relative viability (NCI-H596; first compound 0.002 µM) of 0.642. The relative viability (NCI-H596; first compound 0.006325 µM) was 0.555, the relative viability (NCI-H596; first compound 0.02 µM) was 0.277 and the relative viability (NCI-H647; first compound 0.0002 µM) was 0.331. It also gave a relative viability (NCI-H647; first compound 0.000632 µM) of 0.361, a relative viability (NCI-H647; first compound 0.002 µM) of 0.178 and a relative viability (NCI-H647; first compound 0.006325 µM) of 0.118. For the same molecule, the relative viability (NCI-H647; first compound 0.02 µM) was 0.0816, the relative viability (NCI-H650; first compound 0.0002 µM) was 0.932 and the relative viability (NCI-H650; first compound 0.000632 µM) was 0.644. It also gave a relative viability (NCI-H650; first compound 0.002 µM) of 0.318, a relative viability (NCI-H650; first compound 0.006325 µM) of 0.295 and a relative viability (NCI-H650; first compound 0.02 µM) of 0.16. For the same molecule, the relative viability (NCI-H727; first compound 0.0002 µM) was 0.398, the relative viability (NCI-H727; first compound 0.000632 µM) was 0.379 and the relative viability (NCI-H727; first compound 0.002 µM) was 0.402. For the same molecule, the relative viability (NCI-H727; first compound 0.006325 µM) was 0.386, the relative viability (NCI-H727; first compound 0.02 µM) was 0.339 and the relative viability (NCI-H838; first compound 0.0002 µM) was 0.456. For the same molecule, the relative viability (NCI-H838; first compound 0.000632 µM) was 0.638, the relative viability (NCI-H838; first compound 0.002 µM) was 0.183 and the relative viability (NCI-H838; first compound 0.006325 µM) was 0.141. It also gave a relative viability (NCI-H838; first compound 0.02 µM) of 0.0997.
